Measurements as given in PubChem BioAssay AID248 (DTP/NCI, 2004).
Where “and” joins values, the source holds several entries; their conditions need not be identical. Equal values may be shown once. Toxic doses and inconclusive results are not listed. Cut-off read from the data, not from the text of the source: active = T/C of 150% or more; inactive = T/C below 125%.

System: L1210 leukemia ip in BDF1 mice, survival T/C
Test: NCI In Vivo Anticancer Drug Screen. Data for tumor model L1210 Leukemia (intraperitoneal) in B6D2F1 (BDF1) mice
Settings: endpoint: mean survival time, higher = longer survival
Outline: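 Transplanted-tumor mice were given test agent; controls received vehicle only. Survival readings from the two groups were divided (treated over control).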

[1] = dose: 100.0 mg/kg/injection, schedule: Q01DX001 (ip), vehicle: carboxymethylcellulose (CMC)
[2] = dose: 200.0 mg/kg/injection, schedule: Q01DX001 (ip), vehicle: carboxymethylcellulose (CMC)
[3] = dose: 400.0 mg/kg/injection, schedule: Q01DX001 (ip), vehicle: carboxymethylcellulose (CMC)
[4] = dose: 100.0 mg/kg/injection, schedule: Q01DX009 (ip), vehicle: saline with Tween-80
[5] = dose: 100.0 mg/kg/injection, schedule: Q04DX003 (ip), vehicle: saline with Tween-80
[6] = dose: 200.0 mg/kg/injection, schedule: Q01DX009 (ip), vehicle: saline with Tween-80
[7] = dose: 200.0 mg/kg/injection, schedule: Q04DX003 (ip), vehicle: saline with Tween-80
[8] = dose: 400.0 mg/kg/injection, schedule: Q01DX009 (ip), vehicle: saline with Tween-80
[9] = dose: 400.0 mg/kg/injection, schedule: Q04DX003 (ip), vehicle: saline with Tween-80
[10] = dose: 12.5 mg/kg/injection, schedule: Q04DX003 (ip), vehicle: saline
[11] = dose: 25.0 mg/kg/injection, schedule: Q04DX003 (ip), vehicle: saline
[12] = dose: 50.0 mg/kg/injection, schedule: Q04DX003 (ip), vehicle: saline
[13] = dose: 100.0 mg/kg/injection, schedule: Q04DX003 (ip), vehicle: Klucel (hydroxypropylcellulose) (HPC)
[14] = dose: 200.0 mg/kg/injection, schedule: Q04DX003 (ip), vehicle: Klucel (hydroxypropylcellulose) (HPC)
[15] = dose: 400.0 mg/kg/injection, schedule: Q04DX003 (ip), vehicle: Klucel (hydroxypropylcellulose) (HPC)
[16] = dose: 100.0 mg/kg/injection, schedule: Q01DX001 (ip), vehicle: saline
[17] = dose: 200.0 mg/kg/injection, schedule: Q01DX001 (ip), vehicle: saline
[18] = dose: 400.0 mg/kg/injection, schedule: Q01DX001 (ip), vehicle: saline
[19] = dose: 50.0 mg/kg/injection, schedule: Q01DX009 (ip), vehicle: saline with Tween-80
[20] = dose: 12.5 mg/kg/injection, schedule: Q01DX009 (ip), vehicle: saline
[21] = dose: 100.0 mg/kg/injection, schedule: Q01DX009 (ip), vehicle: Klucel (hydroxypropylcellulose) (HPC)
[22] = dose: 200.0 mg/kg/injection, schedule: Q01DX009 (ip), vehicle: Klucel (hydroxypropylcellulose) (HPC)
[23] = dose: 400.0 mg/kg/injection, schedule: Q01DX009 (ip), vehicle: Klucel (hydroxypropylcellulose) (HPC)
[24] = dose: 100.0 mg/kg/injection, schedule: Q04DX002 (ip), vehicle: saline with Tween-80
[25] = dose: 200.0 mg/kg/injection, schedule: Q04DX002 (ip), vehicle: saline with Tween-80
[26] = dose: 400.0 mg/kg/injection, schedule: Q04DX002 (ip), vehicle: saline with Tween-80

Measured: T/C

CCC1(C(C)C)SC(N)=NC1=O (configuration not stated)
inactive: [1] 102 % of control | [2] 94 % of control | [3] 96 % of control

NC(=O)c1ncn(C2OC(CO)C(O)C2O)c1C(N)=O (configuration not stated)
inactive: [1] 104 % of control | [2] 123 % of control

O=C(O)Cc1c[nH]c(=O)[nH]c1=O
inactive: [4] 97 % of control | [5] 102 % of control | [6] 103 % of control | [7] 103 % of control | [8] 101 % of control | [9] 92 % of control

CC(C)CCCC(C)C1CCC2C3CC(=O)NC4CC(Br)CCC4(C)C3CCC12C (configuration not stated)
inactive: dose: 100.0 mg/kg/injection, schedule: Q04DX003 (ip), vehicle: acetone 93 % of control | dose: 200.0 mg/kg/injection, schedule: Q04DX003 (ip), vehicle: acetone 102 % of control | dose: 400.0 mg/kg/injection, schedule: Q04DX003 (ip), vehicle: acetone 98 % of control

Cc1ncc(CO)c(Cc2ccc(N(C)C)cc2)c1O
inactive: dose: 100.0 mg/kg/injection, schedule: Q04DX002 (ip), vehicle: saline 88 % of control | dose: 200.0 mg/kg/injection, schedule: Q04DX002 (ip), vehicle: saline 103 % of control | dose: 400.0 mg/kg/injection, schedule: Q04DX002 (ip), vehicle: saline 95 % of control

CCCCCCCCCCC(=O)CCCC
inactive: [4] 100 % of control | [6] 102 % of control | [8] 104 % of control

O=C(c1cccc([N+](=O)[O-])c1)c1[nH]c2sc3c(c2c1O)CCCC3
inactive: dose: 6.25 mg/kg/injection, schedule: Q01DX009 (ip), vehicle: Klucel (hydroxypropylcellulose) (HPC) 92 % of control | dose: 12.5 mg/kg/injection, schedule: Q01DX009 (ip), vehicle: Klucel (hydroxypropylcellulose) (HPC) 94 % of control and 91 % of control | dose: 25.0 mg/kg/injection, schedule: Q01DX009 (ip), vehicle: Klucel (hydroxypropylcellulose) (HPC) 89 % of control

CC(C)C(CN)(CCCCN1CCCC1)c1cccc2ccccc12 (configuration not stated)
inactive: [10] 96 % of control | [11] 93 % of control | [12] 96 % of control

O=C1NC(c2ccccc2)(c2ccccc2)C(=O)N1SC(Cl)(Cl)Cl
inactive: dose: 25.0 mg/kg/injection, schedule: Q04DX002 (ip), vehicle: Klucel (hydroxypropylcellulose) (HPC) 100 % of control | dose: 50.0 mg/kg/injection, schedule: Q04DX002 (ip), vehicle: Klucel (hydroxypropylcellulose) (HPC) 118 % of control

CC(C)CC(=O)OCc1ccc2c(c1)OCO2
inactive: dose: 222.0 mg/kg/injection, schedule: Q01DX Z (ip), vehicle: saline 109 % of control | dose: 333.0 mg/kg/injection, schedule: Q01DX Z (ip), vehicle: saline 102 % of control | dose: 500.0 mg/kg/injection, schedule: Q01DX Z (ip), vehicle: saline 108 % of control

Cc1ccc(Br)c2c1CCC2=O
inactive: dose: 100.0 mg/kg/injection, schedule: Q01DX001 (ip), vehicle: Klucel (hydroxypropylcellulose) (HPC) 93 % of control | dose: 200.0 mg/kg/injection, schedule: Q01DX001 (ip), vehicle: Klucel (hydroxypropylcellulose) (HPC) 100 % of control | dose: 400.0 mg/kg/injection, schedule: Q01DX001 (ip), vehicle: Klucel (hydroxypropylcellulose) (HPC) 93 % of control

CC1(C)C2CCC1(C)C(c1ccc(O)cc1)C2 (configuration not stated)
inactive: [13] 104 % of control | [14] 101 % of control | [15] 102 % of control

O=C(Nc1ccc(S(=O)(=O)NC2CCCCC2)cc1)OCc1ccccc1
inactive: [16] 95 % of control | [17] 89 % of control | [18] 95 % of control

CC(=O)C(C)C(=O)c1cc(C)c(Br)s1 (configuration not stated)
inactive: [1] 94 % of control | [2] 97 % of control | [3] 94 % of control

CCOCCNc1ccc(S(=O)(=O)c2ccc(N)cc2)cc1N
inactive: [16] 95 % of control | [17] 90 % of control | [18] 97 % of control

O=C(N/N=C\c1ccc(/C=N\NC(=O)c2ccc(O)cc2)cc1)c1ccc(O)cc1
inactive: [19] 112 % of control | [4] 94 % of control | [6] 105 % of control

COc1ccc(-c2nc(N)nc3c2CN(CCC(=O)O)C3=O)cc1
inactive: [16] 100 % of control | [17] 95 % of control | [18] 94 % of control

COC(=O)CC[S+](C)CCC(=O)OC
inactive: dose: 7.5 mg/kg/injection, schedule: Q04DX003 (ip), vehicle: saline 100 % of control | dose: 15.0 mg/kg/injection, schedule: Q04DX003 (ip), vehicle: saline 107 % of control | dose: 30.0 mg/kg/injection, schedule: Q04DX003 (ip), vehicle: saline 105 % of control

Nc1nc(N)c(N=Nc2ccccc2S(=O)(=O)O)c(=O)[nH]1
inactive: [20] 97 % of control | dose: 25.0 mg/kg/injection, schedule: Q01DX009 (ip), vehicle: saline 97 % of control | dose: 50.0 mg/kg/injection, schedule: Q01DX009 (ip), vehicle: saline 100 % of control | [12] 101 % of control | [16] 96 % of control | [17] 98 % of control | [18] 104 % of control

COC1(OC)C2C=CC1C1C2C2C1C1C=CC2C1(OC)OC (configuration not stated)
inactive: [4] 103 % of control | [5] 94 % of control | [6] 95 % of control | [7] 92 % of control | [8] 100 % of control | [9] 89 % of control

CCCCOC(=O)c1ccc(NC(=O)Nc2cc(Cl)ccc2OC)cc1
inactive: [21] 98 % of control | [22] 98 % of control | [23] 90 % of control

OC1(CBr)CCCCC1
inactive: [5] 102 % of control | [7] 98 % of control | [9] 95 % of control

CNc1nc2c(=O)[nH]c(N)nc2n1C1OC(CO)C(O)C1O (configuration not stated)
inactive: dose: 50.0 mg/kg/injection, schedule: Q01DX001 (ip), vehicle: carboxymethylcellulose (CMC) 101 % of control | [1] 104 % of control | [2] 95 % of control | [3] 89 % of control

O=C(CC(=O)c1ccccc1)c1ccccc1
inactive: [24] 97 % of control | [25] 102 % of control | [26] 94 % of control

O=[N+]([O-])c1ccccn1
inactive: dose: 6.25 mg/kg/injection, schedule: Q01DX009 (ip), vehicle: saline 102 % of control | dose: 6.25 mg/kg/injection, schedule: Q04DX003 (ip), vehicle: saline 95 % of control | [20] 102 % of control | [10] 98 % of control | [11] 93 % of control | dose: 75.0 mg/kg/injection, schedule: Q01DX001 (ip), vehicle: other 98 % of control

CCOP(=O)(OCC)c1ccc([N+](=O)[O-])cc1
inactive: [16] 87 % of control | [17] 89 % of control

CCCCCCCC(=O)Nc1cccc(OC(=O)NC)c1
inactive: [5] 98 % of control | [7] 94 % of control | [9] 96 % of control

N/C(Cc1ccc(N)cc1)=N\O
inactive: dose: 25.0 mg/kg/injection, schedule: Q01DX009 (ip), vehicle: saline with Tween-80 97 % of control | [19] 101 % of control | [4] 95 % of control

Cc1ccc(NC(=O)C(Cl)(Cl)Cl)cc1C
inactive: [13] 93 % of control | [14] 101 % of control | [15] 90 % of control

C=CCc1ccc(OC(=O)Nc2ccc(SC)cc2)c(OC)c1
inactive: [19] 95 % of control and 87 % of control | dose: 100.0 mg/kg/injection, schedule: Q01DX001 (ip), vehicle: saline with Tween-80 101 % of control | [24] 90 % of control and 91 % of control | [5] 94 % of control | dose: 200.0 mg/kg/injection, schedule: Q01DX001 (ip), vehicle: saline with Tween-80 98 % of control | [25] 93 % of control and 100 % of control | [7] 91 % of control | dose: 400.0 mg/kg/injection, schedule: Q01DX001 (ip), vehicle: saline with Tween-80 97 % of control | [8] 99 % of control and 89 % of control | [26] 94 % of control and 88 % of control | [9] 96 % of control

O=C(O)CCC(=O)Nc1cccc(C(F)(F)F)c1
inactive: [21] 103 % of control | [22] 105 % of control | [23] 100 % of control
